Reference: PMC8145938, “Triphenilphosphonium Analogs of Chloramphenicol as Dual-Acting Antimicrobial and Antiproliferating Agents” (Antibiotics, 2021)

Legend:
[1] = tested on: ribosome stalling on trpL mRNA in a cell-free translation system; assay: toeprinting (primer extension inhibition) assay on trpL mRNA; type: biochemical; details: trpL mRNA template, 30 μM compound
Source text: To investigate the mechanism of action of CAM-C10-TPP and CAM-C14-TPP in the translation process, a primer extension inhibition assay (toeprinting) was used. This method allows for the unambiguous identification of drug-induced ribosome stalling sites along the mRNA, with single-nucleotide precision. This technique is also used to determine the context-specificity of antibiotic action. For this experiment, trpL mRNAs were chosen as the template, as in the pDualrep2 reporter system. […] Compared to the results obtained previously for CAM-C4-TPP using rst1 and rst2 mRNA templates, more unambiguous results were obtained using a trpL mRNA template. The main drug-induced ribosome stalling sites are different for CHL and CAM-Cn-TPP, and there are also CAM-Cn-TPP-specific stalling positions.
The toeprinting assay was carried out using trpL mRNA as a template, as described in [73], and the reactions were preincubated for 5 min with 30 μM of the tested compound.

[2] = tested on: E. coli 70S ribosomes; design: method as in PMID 33916420; details: displacement of BODIPY-ERY from 70S ribosomes; read-out: apparent dissociation constant (KDapp); cited from earlier work
[3] = tested on: B. subtilis cells; assay: membrane potential by DiS-C3-(5) fluorescence; type: cell-based, Bacillus subtilis
Source text: Thus, we further examined the effect of CAM-Cn-TPP on the bacterial membrane potential of B. subtilis. In particular, the membrane potential of B. subtilis can be estimated from the fluorescence of the potential-sensitive dye, DiS-C3-(5), by measuring the changing fluorescence. The potential-dependent accumulation of the dye inside the bacterial cell causes quenching and leads to a decrease in fluorescence. Under the influence of substances that reduce the membrane potential, the dye is released and the fluorescence increases. […] Therefore, the action of CAM-Cn-TPP may have a double effect on bacterial cells and be based on the depolarization of the bacterial membrane by analogy with the mechanism of action of Cn-TPP [17].
The membrane potential of B. subtilis was estimated by measuring the fluorescence of the potential-dependent probe, DiS-C3-(5). B. subtilis from the overnight culture were seeded into a fresh LB medium, followed by growth for […], until reaching the optical density of 0.8 at 600 nm. Then, the bacteria were diluted 20-fold in a buffer containing 100 mM of KCl and 10 mM of Tris, pH 7.4. The fluorescence was measured at 670 nm (excitation at 630 nm) using a Fluorat-02-Panorama fluorimeter.

[4] = tested on: MDA-MB-231 and BT-549 TNBC-sensitive and chemoresistant cells; assay: cancer cell proliferation / viability assay (MTT); type: cell-based; details: 3 days treatment
Source text: We recently provided in vivo [67] and in vitro [68] evidence that certain bactericidal antibiotics suppress tumor growth by inducing mitochondrial dysfunction. […] These cells differ from the corresponding parental cells and display a different response to the same microenvironmental stimuli, allowing them to reduce their proliferating rate and survive chemotherapeutic treatment. Here, we tested the abovementioned CAM-TPP derivatives on chemoresistant triple negative breast cancer (TNBC) cell models, as well as on corresponding CSC-like spheroid cells. We created several relevant models based on TNBC cell lines, particularly MDA-MB-231 and BT-549, to determine their resistance to cyclophosphamide. To create CSC-like cells, parental cells were resuspended in nonadherent conditions to form tumorspheres.
The MDA-MB-231 (RRID: CVCL_0062) and BT-549 (RRID: CVCL_1092) cell lines were purchased from ATCC and cultured in DMEM/F12 (Gibco, Life Technologies, 31330-038) supplemented with 10% FBS, 1% Pen-Strep, 1% Sodium Pyruvate, and 1% L-glutamine. Chemoresistant cell lines were established with continuous treatment for 6 months with the anticancer therapeutic agent, cyclophosphamide (Rcyclo), as previously described. These cell lines were authenticated using short tandem repeat (STR) profiling within the last three years. […] The relative numbers of tumourspheres per well were counted manually. […]
The survival assay was performed essentially as described earlier. […] The absorbance was measured at 570 nm in Bio Spec 1601, Shimadzu spectrometer. […] The results were expressed as the means ± SEM. The data were analyzed using the GraphPad Prism 7 PRIZM computer software under the license of the Statistical Department (Vall’ d Hebron Hospital, Barcelona, Spain).

## O=C(CCCC[P+](c1ccccc1)(c1ccccc1)c1ccccc1)N[C@H](CO)[C@H](O)c1ccc([N+](=O)[O-])cc1 [CAM-C4-TPP]
[1]
  drug-induced ribosome stalling site: blocked the ribosome progression at Val6 (Figure 2D, red arrowhead) and slightly blocked it at Ile4
[2]
  Kd: 610 ± 70 nM
[3]
  concentration at which the compound takes effect on membrane potential: ≥ 10 µM
[4]
  effect on proliferation of TNBC cell lines: but not CAM-C4-TPP, significantly reduced the proliferation of TNBC cell lines
